In patent US11241501B2, “Anticancer prodrug for overcoming drug resistance” (Korea University Research and Business Foundation, priority 2018, dated 2022):

Experiments:
HepG2 cells [1] = experiment: Confocal intracellular localization with MitoTracker; assay type: cell-based, human; settings: HepG2, 5 μM, 24 hr
Description: (§1) HepG2 cells treated with each compound (5 μM, 24 hr) were co-stained with the mitochondrial marker MitoTracker (green). Boxed regions show co-localization of the test compounds and probe within the mitochondria. […] Experiments were carried out in triplicate and the data shown represent means±SD. **p<0.01. […] HepG2 cells were incubated with BNPP (100 μM) for 2 hr prior to C1 treatment. **p<0.01. […] Cleaved caspase-3 and PARP-1 levels were examined to assess apoptosis induction. C, cleaved.
Cells were seeded on glass chamber slides (Nalgene Nunc) followed by probe treatment. After 48 h, the cells were fixed with 4% formaldehyde, and blocked with 2% bovine serum albumin-PBS for 30 min. The mitochondria were stained using MitoTracker™ Green FM (Invitrogen, USA) for 30 min. Fluorescent images were obtained using a confocal laser scanning microscope (Carl Zeiss MicroImaging, Inc., Germany).

[2] = tested on: MCF7/Dox xenograft tumors; experiment: Independent comparative xenograft study of C1-C4; assay type: in vivo, mice; settings: n=5 per group, FIG. 23C
Text: Tumors are shown (right). […] C1 injection led to a 58% reduction in tumor growth, which was statistically greater than the reductions seen in the case of C2 (16%), C3 (9%), C4 (6%) and DMSO (0%) tested under otherwise identical conditions.

MCF7 and MCF7/Dox cells = experiment: Intracellular accumulation, fluorescence assay; assay type: cell-based, human; settings: up to 12 hr after treatment
Description: (§2) Fluorescence intensities were measured with SpectraMAX 13. Data represent means±SD. **p<0.01. […] Data represent means±SD. **[…]. […] Data represent the mean±SD (n=3 experimental replicates). *p<0.05, **p<0.01. […] MCF7/Dox cells were treated with C1 or C3 as indicated, and the cytosolic (C) and mitochondrial (M) fractions were subjected to immunoblot assay. COX-IV and tubulin were used as markers for the mitochondria and cytosol fractions, respectively.
Mito-tracker (green) was utilized to show the mitochondria;
(§3) To analyze the cellular fluorescence levels upon compound treatment, cells were seeded in plates 1 day before treatment with the compounds. Cells were then treated with each compound for the indicated dose or time course. After the experiment, cells were washed with ice-cold PBS, trypsinized, and centrifuged. The cell pellet was re-suspended in 300 μL of PBS and then analyzed using a multiplate reader (SpectraMAX I3x). The results were normalized according to the number of cells.

[3] = tested on: cancer cells (A549 and HepG2), normal cells (NHDF and IMR90); experiment: Cellular uptake of compounds in normal and cancer cells; assay type: cell-based, human; settings: 5 μM, 6 h, A549, HepG2 vs NHDF
Description: Cells were treated with 5 μM of each compound for 6 h. Fluorescence intensities were determined using SpectraMAX 13;
as §3

MCF7 cells = experiment: Colony formation assay; assay type: cell-based, human; settings: 10 days
Description: (§4) Cells were seeded in 24 well plates at 2×10^5 cells per well and were allowed to adhere for at least 24 h, growth medium was replaced with medium containing C1 or its analogues at the indicated concentrations and times, and cell viability was assessed via the WST-1 assay (Roche Diagnostics, Laval, QC, Canada). For the colony formation assay, cells were seeded in 6-well plates. After 24 h, cells were maintained in the presence of each probe or vehicle dimethyl sulfoxide (DMSO) for 10 days. Colonies were fixed with methanol for 10 min and stained with 0.05% crystal violet in 20% ethanol.

HepG2 cells [4] = experiment: WST cell viability assay; assay type: cell-based, human
Description: as §1, §4

[5] = tested on: p21^Waf1 and phosphorylated PDH levels; experiment: Immunoblot assay of p21Waf1 and phosphorylated PDH; assay type: cell-based, human
Description: as §1
(§5) Immunoblot analyses were performed using antibodies specific for phosphorylated serine 293 PDH-EI (ab92696), p21^Waf1 (sc-397), cleaved PARP (5625), cleaved caspase-3 (9664), COX-IV (4850), and Cytochrome c (4280). They were purchased from Abcam (Cambridge, UK), Santa Cruz Biotechnology (Texas, USA) or Cell Signaling Technology (Massachusetts, USA). Anti-tubulin antibodies were obtained from Sigma-Aldrich (St. Louis, USA). Briefly, cells were washed twice in ice-cold PBS and lysed in a radioimmunoprecipitation assay buffer containing 50 mM Tris/HCl (pH 7.5), 150 mM NaCl, 0.1% sodium dodecyl sulfate (SDS), 1% Triton X-100, 1% sodium deoxycholate, and protease inhibitor mixture. After sonification, the lysate was centrifuged, and the supernatant was recovered and loaded onto a 12% SDS-polyacrylamide gel for electrophoresis.

MCF7/Dox cells = experiment: Cytochrome c release from mitochondria, immunoblot; assay type: cell-based, human
Description: as §2
as §5, with “electrophoresis. […]” for “electrophoresis.”

**Q.** What does the source list for `C#CCC(OC(=O)N[C@H]1C[C@H](O[C@H]2C[C@](O)(C(=O)CO)Cc3c(O)c4c(c(O)c32)C(=O)c2c(OC)cccc2C4=O)O[C@@H](C)[C@H]1O)c1ccc(NC(=O)C(Cl)Cl)cc1` (stereo partly drawn) [C2]?
**A.** intracellular (mitochondrial) localization (HepG2 cells [1]): no detectable mitochondrial localization; reduction in tumor growth [2]: 16%; intracellular accumulation in MCF7/Dox versus MCF7 (MCF7 and MCF7/Dox cells): substantially lower level in MCF7/Dox than in MCF7; tumor cell selectivity of cellular uptake [3]: no cellular selectivity; colony-forming ability (MCF7 cells): showed this effect only in the case of the MCF7 cells; IC50 (HepG2 cells [4]; HepG2 cells, WST assay, read-out: IC50 (cytotoxicity)): 10.6 ± 1.03 µM; cell death in cell-survival assays (HepG2 cells [4]; compared with C3-C6): greater cell death in a dose-dependent manner

**Q.** How did the “effect on p21^Waf1 and phosphorylated PDH levels” value [5] turn out when `COc1cccc2c1C(=O)c1c(O)c3c(c(O)c1C2=O)C[C@@](O)(C(=O)CO)C[C@@H]3O[C@H]1C[C@H](NC(=O)OC(Cc2cn(CCCCCC[P+](c3ccccc3)(c3ccccc3)c3ccccc3)nn2)c2ccc(NC(=O)C(C)C)cc2)[C@H](O)[C@H](C)O1` (stereo partly drawn) [C3] was run?
**A.** no effect on p21^Waf1 or PDH phosphorylation

**Q.** And the “intracellular (mitochondrial) localization” value (HepG2 cells [1])?
**A.** located predominantly within the mitochondria

**Q.** And the “reduction in tumor growth” value [2]?
**A.** 9%

**Q.** And the “tumor cell selectivity of cellular uptake” value [3]?
**A.** taken up specifically by cancer cells

**Q.** What about the “cytochrome c release, cleavage of caspase-3 and PARP-1, decrease in cell viability” value (MCF7/Dox cells) of the same molecule?
**A.** fails to evoke these effects

**Q.** What does the source list for `C#CCC(OC(=O)N[C@H]1C[C@H](O[C@H]2C[C@](O)(C(=O)CO)Cc3c(O)c4c(c(O)c32)C(=O)c2c(OC)cccc2C4=O)O[C@@H](C)[C@H]1O)c1ccc(NC(=O)C(C)C)cc1` (stereo partly drawn) [C4]?
**A.** intracellular (mitochondrial) localization (HepG2 cells [1]): no detectable mitochondrial localization; reduction in tumor growth [2]: 6%; tumor cell selectivity of cellular uptake [3]: no cellular selectivity
